Results on 9 molecules are retold here after patent US20110166195A1, “METHOD FOR THE FORMATION OF MEGAMITOCHONDRIA” (priority 2008, published 2011).

“Also recorded” adds a separate entry of the source. Where a name gives a salt, the structure may show the parent alone.

In one test the test system is 143B.TK−K7 cells. The experiment in a line: Mitochondrial membrane potential by JC-1 staining (confocal microscopy). It is filed as cell-based, Human. Conditions: 10 μM CCCP for 30 minutes before JC-1; 24 and 62 hours cultivation time. As for the experimental part:
Documentation at 24 hours (A1-A3, B1-B3) and 62 hours (C1-C3, D1-D3) cultivation time by JC-1-staining. The red fluorescence of J-aggregates (A1, B1, C1, D1) as well as the green monomer form (A2, B2, C2, D2) were analysed simultaneously by excitation wavelength of 488 nm. Images A3, B3, C3, D3 show overlays. Calibration bars correspond to 10 μm.
To measure differences in mitochondrial membrane potential between the various stages of megamitochondria formation and control cells the dual emission of the potentiometric dye JC-1 was observed. The cells either were incubated directly with 3 μM JC-1 diluted in the standard culture medium and filtered once with 0.2 μm syringe filter for 30 min at 37° C. or first treated with CCCP (final concentration 10 μM) for 30 min for the comparison of cells without membrane potential. The cells were viewed in vivo with the inverse confocal laser scanning microscope (simultaneous excitation of red and green fluorescence by 488 nm wavelength) to observe local differences in the mitochondrial membrane potential.
To determine the mitochondrial membrane potential during the formation of megamitochondria 143B.TK^−K7 cells were either directly stained with JC-1 […] or incubated with […] CCCP for 30 minutes before. […]

The subject of test [1] is 143B.TK−K7gm cells. Briefly: Formation of megamitochondria in drug-treated cells (fluorescence/confocal microscopy of EGFP-Mito). It is filed as cell-based, Human. As for the experimental part:
(A) 24 h after seeding 143B.TK^−K7gm cells were incubated with 10 μM CCCP (A A1), 10 μM valinomycin (A A2, B) or 1 μM nigericin (A A3) for 18 h.
(§1) (A) 143B.TK^−K7gm cells stained with EGFP-Mito were treated with 4 μM cytochalasin B (A1, A2, B1, B2) at different cultivation times for 9-15 hours or an equivalent amount of solvent as control (A3, A4, B3, B4). Staining of actin cytoskeleton was achieved by Alexa Fluor […] phalloidin in fixed cells (A2, B2, A4, B4). Arrow heads indicate round areas in the cytoplasm observable by actin staining after 62 hours cultivation time.
143B.TK^−K7gm cells were treated with 10 μM nocodazol at different cultivation times for 9-15 hours (A1, A2, B1, B2) or as control with an equivalent amount solvent (A3, A4, B3, B4). The morphology of mitochondria is shown by in vivo EGFP-Mito-staining in the images A1, B1, C1, A3, B3, C3. The staining of tubulin cytoskeleton was performed by an antibody against alpha-tubulin and a Cy3-coupled secondary antibody in fixed cells (A2, B2, A4, B4). Calibration bars correspond to 10 μm.
(§2) Drugs (final concentrations 6-10 μM nocodazol, 2.4-4 μM cytochalasin B, 10 μM CCCP, 10 μM valinomycin and 1 μM nigericin) were added to standard culture medium at different stages of megamitochondria development.
(§3) To avoid a cross talk in excitation of multiple stained compounds always a sequential scanning mode was used in confocal microscopy.
To investigate the influence of the mitochondrial membrane potential on the formation and back formation of the megamitochondria 143B.TK^−K7gm cells were incubated with 10 μM CCCP (H^+ ionophore), 10 μM valinomycin (K^+ selective ionophore) and 1 μM nigericin (selective electron neutral K^+/H^+ exchange) (FIG. 4).
(§4) To observe the influence of the tubulin or actin cytoskeleton, respectively, on the formation of megamitochondria 143B.TK^−K7 gm cells were incubated with 10 μM nocodazol or […] cytochalasin B for 9-15 hours.

For test [2], the system named is 143B.TK−K7gm cells with megamitochondria. Briefly: Back-formation of megamitochondria after exchange of acidic medium in drug-treated cells. Particulars: fresh medium also with drug; for back-formation of megamitochondria (mitochondrial morphology after medium exchange): 10 μM CCCP, 10 μM valinomycin or 1 μM nigericin for 30 minutes, analysed 60 minutes after medium exchange; for back-formation of megamitochondria: 6 μM nocodazol or 2.4 mM cytochalasin B for 3 hours, observed one and three hours after medium exchange. The test is classed as cell-based, Human. As for the experimental part:
(C) 143B.TK^−K7gm cells with megamitochondria were incubated with 10 μM CCCP (C A1, B1), 10 μM valinomycin (C A2, B2) or 1 μM nigericin (C A3, B3) for 30 minutes. 60 Minutes after medium exchange (ME) the mitochondrial morphology was analysed. Untreated controls are shown in A A4 and C A4, B4. Calibration marks correspond to 10 μm.
(B) The influence of the actin cytoskeleton on the back-formation of megamitochondria in 143B.TK^−K7gm cells was tested by treatment with 2.4 μM cytochalasin B (A1, A2, C1, D1) or an an equivalent amount of solvent as control (B1, B2, C2, D2) for 3 hours. Mitochondrial morphology was analyzed one (C1, C2) or three hours (D1, D2) after medium exchange. Staining of action cytoskeleton was carried out by Alexa Fluor […] phalloidin in fixed cells (A2, B2).
143B.TK^−K7gm cells with megamitochondria were incubated for 3 hours with 6 μM nocodazol (A1, A2, C1, D1) or as control with an equivalent amount solvent (B1, B2, C2, D2). The analysis of mitochondrial changes in structure were carried out 1 hour (C1, C2) or 3 hours (D1, D2) after the exchange of acidic medium. Arrow heads indicate abnormal ring shaped mitochondrial structures persisting for at least 3 hours. Calibration bars correspond to 10 μm.
as §2, §3
To investigate the influence of the different chemicals on the back-formation of megamitochondria the cells were incubated with indicated concentrations of CCCP, valinomycin and nigericin for 30 minutes (FIG. 4C).
The influence of tubulin and actin cytoskeleton inhibition on back-formation of megamitochondria was performed with 143B.TK^− K7 gm cells with megamitochondria 3 hours after incubating the cells with 6 μM nocodazol or […] cytochalasin B. After changing the used acidic medium and its replacement by fresh medium also completed by the drugs structural changes of mitochondria were observed one hour and three hours later.

The next test has as its system HeLa cells. The experiment in a line: Induction of megamitochondria by changes of culture medium. The test is classed as cell-based. Particulars: medium with HCl or lactic acid (pH 6.7-5.3) or 30-180 mM sodium lactate (pH 7.4 maintained); one hour.
Test [3] deals with 143B.TK−K7gm cells with megamitochondria. Briefly: Back-formation of megamitochondria by changes of culture medium. Conditions: one hour. It is filed as cell-based, Human.
Procedure: Similar experiments were carried out to investigate the back-formation of megamitochondria (FIG. 9). To this end, 143B.TK^−K7 gm cells with megamitochondria were incubated in medium complemented with different additions. Changes of pH value were reached by the addition of 0.04-0.2 mM NaOH into the used culture medium as well as by the addition of HCl and lactic acid, respectively, of values 7.0-5.6 in fresh culture medium. Moreover, the influence of high concentrations of sodium lactate on the back-formation of megamitochondria was analysed by adding 20-210 mM sodium lactate, pH 7.4 into fresh medium without changing the pH value. Treatment of cells with different media was performed for one hour, thereafter the mitochondrial morphology was analysed by fluorescence microscopy.
A further test relates to 143B.TK−gm cells. The experiment in a line: Induction of megamitochondria by changes of culture medium. The test is classed as cell-based, Human. Conditions: medium with HCl or lactic acid (pH 6.7-5.3) or 30-180 mM sodium lactate (pH 7.4 maintained); one hour.
Test [4] deals with 143B.TK−K7gm cells. Described as above. The test is classed as cell-based, Human. Conditions: medium with HCl or lactic acid (pH 6.7-5.3) or 30-180 mM sodium lactate (pH 7.4 maintained); one hour.
Procedure: (§5) The induction of megamitochondria formation was done by the transfer of acidic medium from 143B.TK^− K7 ρ^0 cells and by an artificial acidification of fresh medium with lactic acid, pH 6.0-6.3. Additional changes of culture medium were performed by an acidification of the medium with HCl, addition of 30-180 mM sodium lactate and 1.3-2.0 mM NaOH.
(§6) To test whether megamitochondria can be induced by extrinsic changes of pH value or lactic acid concentration in the culture medium 143B.TK^−K7gm, 143B.TK^−gm and HeLa were incubated with medium complemented with HCl and lactic acid, respectively (pH 6.7-5.3). Additionally, the influence of high concentrations of sodium lactate (30-180 mM) on the megamitochondria formation was determined without changing the pH. A pH value of 6.7-6.8 and a lactate concentration of 30 mM corresponds to the measured values in the analysed cultivation medium of 143B.TK^−K7 cells. Incubation of cells was carried out for one hour with subsequent analyses of mitochondrial morphology in vivo.
In a further test the test system is actin cytoskeleton. The experiment in a line: Staining of actin cytoskeleton by phalloidin in fixed cells. The test is classed as cell-based, Human. Particulars: 4 mM cytochalasin B for 9-15 hours, 143B.TK−K7gm cells. As for the experimental part: as §1
For detection of the actin cytoskeleton cells on cover slips treated as indicated were fixed with 3.7% formaldehyde in PBS for 10 min at room temperature and after three washes in PBS for 5 min permeabilized with 0.1% Triton X-100 in PBS for 5 min. After additional washing steps with PBS (5 min) cells were blocked with 1% BSA in PBS for 30 min at room temperature and incubated with 1 unit (5 μl) Alexa Fluor 546 Phalloidin in 1% BSA in PBS for 20 min at room temperature. After washing the cells three times with PBS for 7 min, the cover slips were mounted with Mowiol and analysed with the confocal microscope.
as §4

The test system of the next test is tubulin polymerisation. The experiment in a line: Immunocytochemical staining of tubulin cytoskeleton with antibody against alpha-tubulin. The test is classed as cell-based, Human. Particulars: 10 μM nocodazol for 9-15 hours, 143B.TK−K7gm cells.
The mark [5] stands for this setting: 10 μM CCCP, 10 μM valinomycin or 1 μM nigericin for 18 h, 24 h after seeding.
Where [6] appears, read: 10 μM nocodazol or 4 mM cytochalasin B for 9-15 hours.

Procedure for 143B.TK−gm cells: as §5, §6
Procedure for HeLa cells: as §5, §6
Procedure for tubulin polymerisation: 143B.TK^−K7gm cells were treated with 10 μM nocodazol at different cultivation times for 9-15 hours (A1, A2, B1, B2) or as control with an equivalent amount solvent (A3, A4, B3, B4). […] The staining of tubulin cytoskeleton was performed by an antibody against alpha-tubulin and a Cy3-coupled secondary antibody in fixed cells (A2, B2, A4, B4).
Cells grown on cover slips were treated as indicated, fixed with methanol (−20° C.) for 5 min and permeabilized with 0.2% Triton X-100 in PBS for 5 min at room temperature. After washing three times with PBS (5 min), the blocking reaction was performed with 100 mM glycine in PBS for 10 min following 3% BSA in PBS for 30 min at room temperature.
Subsequently cover slips were incubated with mouse anti-alpha tubulin polyclonal primary antibody diluted 1:50 in 1% BSA in PBS at 4° C. over night. After washing the cells three times with PBS (5 min), the cover slips were incubated with Cy3-conjugated goat secondary antibody in 10% goat serum in PBS for 1 h at room temperature. The cells were washed three times with PBS (7 min) prior to mounting in Mowiol and analysed by fluorescence microscopy.

For the molecule `N#CC(C#N)=NNc1cccc(Cl)c1` [CCCP], in the test with 143B.TK−K7 cells, the “mitochondrial membrane potential (JC-1 red/green fluorescence)” value was “the red fluorescence was clearly less distinct”. Also, the formation of megamitochondria result in the test on 143B.TK−K7gm cells [1] (setting [5]) was “inhibited”. Also, the “back-formation of megamitochondria (mitochondrial morphology after medium exchange)” value in test [2] is listed as “comparable to the control cells”.

Consider `Cl` [HCl], for which the induction of megamitochondria result in the test with HeLa cells, in the test on 143B.TK−gm cells and with 143B.TK−K7gm cells [4] was “not possible” each time. For the same molecule, the back-formation of megamitochondria entry in [3] (fresh medium acidified with HCl, pH 6.0) is listed as “did not change their form”; in [3] (fresh medium acidified with HCl, pH 7.0), “formed back to a tubular network”.

For `[Na+].[OH-]` [NaOH], the back-formation of megamitochondria entry is “did not lead to the back-formation of megamitochondria; also recorded: did not lead to the back formation of megamitochondria” in test [3] (1.3 mM NaOH added into the acidic medium); “resulted in a change in mitochondrial morphology from spherical forms to tubules and network-like structures; also recorded: sufficient to induce the back-formation of megamitochondria” in test [3] (2.0 mM NaOH added into the acidic medium).

With `C=C1[C@@H](C)[C@H]2[C@H](Cc3ccccc3)NC(=O)[C@]23OC(=O)/C=C/[C@H](O)CCC[C@@H](C)C/C=C/[C@H]3[C@@H]1O` [cytochalasin B], the “effectiveness of drug treatment on actin cytoskeleton (phalloidin staining)” value in the test with actin cytoskeleton is on record as “confirming the effectiveness of drug treatment”. For the same molecule, the formation of megamitochondria result in the test on 143B.TK−K7gm cells [1] (setting [6]) is given as “prevented formation of megamitochondria”. Further, the back-formation of megamitochondria result in [2] was “severe influence on megamitochondria back-formation”.

Turning to `CC(O)C(=O)O` (centres unmarked) [lactic acid], the induction of megamitochondria entry in the test with HeLa cells, with 143B.TK−gm cells and with 143B.TK−K7gm cells [4] was “led to the formation of megamitochondria” each time. Also, the back-formation of megamitochondria entry in test [3] (fresh medium acidulated with lactic acid, pH 6.8) is reported as “the spherical mitochondria changed to a tubular network”; in [3] (fresh medium acidulated with lactic acid, pH 7.0), “resulted in the back-formation of megamitochondria”.

Regarding `CO[C@@H]1C[C@@H](C[C@H]2CC[C@H](C)[C@H]([C@@H](C)C(=O)O)O2)O[C@]2(O[C@](C)([C@H]3CC[C@@](C)([C@@H]4O[C@@H]([C@H]5O[C@@](O)(CO)[C@H](C)C[C@@H]5C)C[C@@H]4C)O3)C[C@H]2C)[C@@H]1C` [nigericin], the formation of megamitochondria result in the test on 143B.TK−K7gm cells [1] (setting [5]) is given as “inhibited”. Also, in test [2], the “back-formation of megamitochondria (mitochondrial morphology after medium exchange)” value is “comparable to the control cells”.

Take `COC(=O)Nc1nc2ccc(C(=O)c3cccs3)cc2[nH]1` [nocodazol]: in the test with tubulin polymerisation, the “inhibition of tubulin polymerisation (alpha-tubulin staining)” value is “Complete inhibition of tubulin polymerisation”. In addition, the formation of megamitochondria result in the test on 143B.TK−K7gm cells [1] (setting [6]) is reported as “no influence of the tubulin cytoskeleton on the formation of megamitochondria”. In test [2], the back-formation of megamitochondria result is recorded as “only minor influence on back-formation of megamitochondria”.

Regarding `CC(O)C(=O)[O-].[Na+]` (centres unmarked) [sodium lactate], the induction of megamitochondria entry with HeLa cells, in the test on 143B.TK−gm cells and in the test on 143B.TK−K7gm cells [4] was “not possible” throughout. For the same molecule, the back-formation of megamitochondria result in test [3] (fresh medium with 20-210 mM sodium lactate, pH 7.4) is listed as “led to the back-formation of megamitochondria in all used concentrations”.

Regarding `CC(C)[C@@H]1NC(=O)[C@H](C)OC(=O)[C@@H](C(C)C)NC(=O)[C@@H](C(C)C)OC(=O)[C@H](C(C)C)NC(=O)[C@H](C)OC(=O)[C@@H](C(C)C)NC(=O)[C@@H](C(C)C)OC(=O)[C@H](C(C)C)NC(=O)[C@H](C)OC(=O)[C@@H](C(C)C)NC(=O)[C@@H](C(C)C)OC1=O` [valinomycin], in the test on 143B.TK−K7gm cells [1] (setting [5]), the formation of megamitochondria result is “led to the formation of megamitochondria with diameters exceeding the control cells”. For the same molecule, the “back-formation of megamitochondria (mitochondrial morphology after medium exchange)” value in [2] is on record as “inhibited the back-formation of megamitochondria”.
